# Values of other authors as cited in PMC5742115, “Pharmacophore Modeling and in Silico/in Vitro Screening for Human Cytochrome P450 11B1 and Cytochrome P450 11B2 Inhibitors” (Frontiers in Chemistry, 2017).
# Like-named read-outs stand apart in the source and are kept apart here.
# Experiments:
# [1] = test system: CYP11B1; conditions: reported activity, supplementary Table 1, read-out: CYP11B1 IC50, cited from earlier work
# [2] = test system: CYP11B2; conditions: reported activity, supplementary Table 1, read-out: CYP11B2 IC50, cited from earlier work
# [3] = ref Pinto-Bazurco Mendieta et al., 2013
compound,measurement,setting,value
COc1cncc(Cc2ccc(-c3ccccc3)nc2)c1 [CHEMBL2417614],IC50,"[1]; ref Emmerich et al., 2013",5 nM
same,IC50,"[2]; ref Emmerich et al., 2013",25 nM
CC(C)C(c1cc2c3c(c1)CCN3C(=O)CC2)n1ccnc1 (stereo not drawn) [CHEMBL2163638],IC50,"[1]; ref Yin et al., 2012",3.8 nM
same,IC50,"[2]; ref Yin et al., 2012",1.4 nM
COc1ccc2cc(-c3cccnc3)ccc2c1Br [CHEMBL196328],IC50,"[1]; ref Voets et al., 2005",4480 nM
same,IC50,"[2]; ref Voets et al., 2005",33 nM
Oc1ccc(-c2ccc(Cn3ccnc3)cn2)cc1F [CHEMBL2011246],IC50,"[1]; ref Hille et al., 2011a",17 nM
same,IC50,"[2]; ref Hille et al., 2011a",237 nM
c1csc(-c2ccc(Cn3ccnc3)cn2)c1 [CHEMBL2011261],IC50,"[1]; ref Hille et al., 2011a",75 nM
same,IC50,"[2]; ref Hille et al., 2011a",1240 nM
COc1ccc2ccc(-c3cncnc3)c(Cl)c2c1 [CHEMBL2420685],IC50,[1]; [3],12300 nM
same,IC50,[2]; [3],72 nM
Cc1c(C)c(C)c(Cn2ccnc2)c(C)c1C [CHEMBL1651495],IC50,"[1]; ref Hille et al., 2011b",5 nM
same,IC50,"[2]; ref Hille et al., 2011b",23 nM
Oc1ccc2ccc(-c3cncc4ccccc34)c(Cl)c2c1 [CHEMBL2420688],IC50,[1]; [3],238 nM
same,IC50,[2]; [3],66 nM
COc1ccc2c(c1)CCC/C2=C\c1cccnc1 [CHEMBL362441],IC50,"[1]; ref Ulmschneider et al., 2005a",903 nM
same,IC50,"[2]; ref Ulmschneider et al., 2005a",57 nM
O=C1CCc2cc(-c3cncc4ccccc34)cc3c2N1CCC3 [CHEMBL1765215],IC50,"[1]; ref Lucas et al., 2011",34 nM
same,IC50,"[2]; ref Lucas et al., 2011",0.2 nM
CC(c1cccnc1)c1cc2c3c(c1)CCN3C(=O)CC2 (stereo not drawn) [CHEMBL2312967],IC50,"[1]; ref Yin et al., 2013",4 nM
same,IC50,"[2]; ref Yin et al., 2013",37 nM
c1ccc(-c2cccc(Cn3ccnc3)c2)cc1 [CHEMBL1651497],IC50,"[1]; ref Hille et al., 2011b",46 nM
same,IC50,"[2]; ref Hille et al., 2011b",265 nM
Cc1cccc(Cn2ccnc2)c1 [CHEMBL1651493],IC50,"[1]; ref Hille et al., 2011b",48 nM
same,IC50,"[2]; ref Hille et al., 2011b",110 nM
COc1ccc2cc(-c3cncc(O)c3)ccc2c1 [CHEMBL500636],IC50,"[1]; ref Heim et al., 2008",8920 nM
same,IC50,"[2]; ref Heim et al., 2008",94 nM
CCOc1cc2c(cc1-c1cccnc1)CCC(=O)N2C [CHEMBL2165317],IC50,"[1]; ref Hu et al., 2012",790 nM
same,IC50,"[2]; ref Hu et al., 2012",19 nM
Cc1ccncc1-c1ccc2cc(C#N)ccc2c1 [CHEMBL500665],IC50,"[1]; ref Heim et al., 2008",52 nM
same,IC50,"[2]; ref Heim et al., 2008",0.6 nM
Cc1cc(C)c(Cn2ccnc2)c(C)c1 [CHEMBL1649605],IC50,"[1]; ref Hille et al., 2011b",24 nM
same,IC50,"[2]; ref Hille et al., 2011b",30 nM
COc1ccc2c(c1)CC(C)C(c1cncc3ccccc13)=C2 (stereo not drawn) [CHEMBL499044],IC50,"[1]; ref Heim et al., 2008",64 nM
same,IC50,"[2]; ref Heim et al., 2008",0.5 nM
Clc1ccc2c(c1)CC/C2=C\c1ccncc1 [CHEMBL175554],IC50,"[1]; ref Ulmschneider et al., 2005a",1520 nM
same,IC50,"[2]; ref Ulmschneider et al., 2005a",18 nM
Fc1ccc2c(c1)CC/C2=C/c1ccncc1 [CHEMBL179144],IC50,"[1]; ref Ulmschneider et al., 2005b",34 nM
same,IC50,"[2]; ref Ulmschneider et al., 2005b",29 nM
Clc1cccc2c1CC/C2=C/c1cccnc1 [CHEMBL369623],IC50,"[1]; ref Ulmschneider et al., 2005a",657 nM
same,IC50,"[2]; ref Ulmschneider et al., 2005a",31 nM
COc1cncc(-c2cc3ccc(OC)cc3cc2C)c1 [CHEMBL502818],IC50,"[1]; ref Heim et al., 2008",875 nM
same,IC50,"[2]; ref Heim et al., 2008",3.8 nM
COC(=O)Cc1cncc(-c2ccc3cc(OC)ccc3c2)c1 [CHEMBL526339],IC50,"[1]; ref Heim et al., 2008",199 nM
same,IC50,"[2]; ref Heim et al., 2008",6.9 nM
COc1ccc2cc(-c3cncc(C(C)OC)c3)ccc2c1 (stereo not drawn) [CHEMBL500392],IC50,"[1]; ref Heim et al., 2008",10 nM
same,IC50,"[2]; ref Heim et al., 2008",0.2 nM
COc1cncc(C2=Cc3ccc(OC)cc3CC2C)c1 (stereo not drawn) [CHEMBL500145],IC50,"[1]; ref Heim et al., 2008",100 nM
same,IC50,"[2]; ref Heim et al., 2008",1.2 nM
c1ccc2cc(-c3cnco3)ccc2c1 [CHEMBL193653],IC50,"[1]; ref Voets et al., 2005",805 nM
same,IC50,"[2]; ref Voets et al., 2005",12 nM
O=C1CCc2cc(-c3cccnc3)ccc2C1 [CHEMBL462093],IC50,"[1]; ref Lucas et al., 2008b",3960 nM
same,IC50,"[2]; ref Lucas et al., 2008b",7.8 nM
N#Cc1ccc(Cn2cncc2CCCO)cc1 [CHEMBL598399],IC50,"[1]; ref Roumen et al., 2010",48 nM
same,IC50,"[2]; ref Roumen et al., 2010",13 nM
COc1cc2c(cc1-c1cccnc1)CCC(=O)N2C [CHEMBL2165315],IC50,"[1]; ref Hu et al., 2012",1100 nM
same,IC50,"[2]; ref Hu et al., 2012",19 nM
COc1ccc2cc(-c3cncc(C(C)O)c3)ccc2c1 (stereo not drawn) [CHEMBL500395],IC50,"[1]; ref Heim et al., 2008",99 nM
same,IC50,"[2]; ref Heim et al., 2008",0.5 nM
